Laboratory results published in patent publication US5750530A, “Pharmaceutical diketopiperazine compounds” (Xenova Limited, priority 1994, dated 1998).
Structures can show the parent of a compound that is named as a salt. Where two headings read alike, the source gives them in different places.

Biological target: PAI-1 (Homo sapiens, UniProt P05121)
Test: biochemical
Assay type: biochemical
Procedure: The present compounds have been tested in a PAI functional assay. In this assay, a compound is incubated with PAI-1 prior to addition to the tPA assay system. Inhibition of PAI-1 results in the production of plasmin from plasminogen. In turn, plasmin cleaves the chromogenic substrate S2251 (Kabi Vitrum) producing pNA (p-nitroaniline) which is detected spectrophotometrically at 405 nm (K. Nilsson et al, Fibrinolysis (1987) 1, 163-168).
The present compounds were tested in a PAI chromogenic substrate assay. In the assay (K. Nilsson, Fibrinolysis (1987) 1, 163-168) each compound was incubated with PAI-1 prior to addition to the tPA assay system. […] In turn, the plasmin cleaved the chromogenic substrate S2251 (Kabi-Vitrum) producing pNA (p-nitroaniline) which was detected spectrophotometrically at 405 nm.
The degrees of inhibition observed in the chromogenic substrate assay at various concentrations, or the IC50 values, for each compound are presented in Table 1.

[1] = PAI chromogenic substrate assay

PAI-1, sequence (P05121 24-402): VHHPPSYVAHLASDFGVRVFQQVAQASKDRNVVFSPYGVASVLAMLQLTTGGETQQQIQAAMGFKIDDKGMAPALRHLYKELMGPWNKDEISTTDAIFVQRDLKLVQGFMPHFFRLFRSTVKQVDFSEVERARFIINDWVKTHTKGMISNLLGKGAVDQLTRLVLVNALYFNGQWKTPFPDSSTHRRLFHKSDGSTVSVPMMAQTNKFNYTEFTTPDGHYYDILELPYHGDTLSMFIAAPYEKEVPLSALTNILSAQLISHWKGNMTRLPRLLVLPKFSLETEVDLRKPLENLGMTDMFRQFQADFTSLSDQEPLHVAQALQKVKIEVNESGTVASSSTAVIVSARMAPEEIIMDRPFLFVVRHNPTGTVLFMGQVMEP

% Inhibition (5 μm) | % Inhibition (20 μm) | % Inhibition (100 μm) | IC50 [1] | IC50 | SMILES
5% | 71% | 69% | 10 µM | – | CN(C)CCSc1ccc(/C=c2\[nH]c(=O)/c(=C/c3ccccc3)[nH]c2=O)cc1 [Compound 5128.HCl, (3Z,6Z)-6-Benzylidene-3-(4-(2-dimethylaminoethylthio)benzylidene)-2,5-piperazinedione]
51% | 68% | 50% | 4.5 µM | – | CN(C)CCSc1ccc(/C=c2\[nH]c(=O)/c(=C/c3ccoc3)[nH]c2=O)cc1 [Compound 5129.HCl, (3Z,6Z)-6-(4-(2-Dimethylaminoethylthio)benzylidene)-3-(3-furylmethylene)-2,5-piperazinedione]
– | 65% | 56% | 5 µM | – | CN(C)CCSc1ccc(/C=c2\[nH]c(=O)/c(=C/c3ccccc3)[nH]c2=O)s1 [Compound 5131.HCl, (3Z,6Z)-6-Benzylidene-3-(5-(2-dimethylaminoethylthio)-2-thienyl)methylene-2,5-piperazinedione]
– | 66% | 24% | 3 µM | – | CN(C)CCSc1ccc(/C=c2\[nH]c(=O)/c(=C/c3ccsc3)[nH]c2=O)cc1 [Compound 5133.HCl, (3Z,6Z)-6-(4-(2-Dimethylaminoethylthio)benzylidene)-3-(3-thienylmethylene)-2,5-piperazinedione]
0% | 6% | 34% | – | – | CN(C)CC[S+]([O-])c1ccc(/C=c2\[nH]c(=O)/c(=C/c3ccccc3)[nH]c2=O)cc1 (centres unmarked) [Compound 5141.HCl, (3Z,6Z)-6-Benzylidene-3-(4-(2-dimethylaminoethylsulphinyl)benzylidene)-2,5-piperazinedione]
– | 77% | 41% | 7 µM | – | CN(C)CCSc1ccc(/C=c2\[nH]c(=O)/c(=C/c3ccsc3)[nH]c2=O)s1 [Compound 5257, (3Z,6Z)-3-(5-(2-Dimethylaminoethylthio)-2-thienyl)methylene-6-(3-thienyl)methylene-2,5-piperazinedione]
– | 64% | 68% | – | 20 µM | CN(C)CCSc1ccc(/C=c2\[nH]c(=O)/c(=C/c3ccc4c(c3)OCO4)[nH]c2=O)s1 [Compound 5279, (3Z,6Z)-3-(5-(2-Dimethylaminoethylthio)-2-thienyl)methylene-6-(3,4-methylenedioxybenzylidene)-2,5-piperazinedione]
– | – | – | 13 µM | – | CN(C)CCSc1ccc(/C=c2\[nH]c(=O)/c(=C/c3ccc4c(c3)OCO4)[nH]c2=O)s1 [Compound 5279.HCl, (3Z,6Z)-3-(5-(2-Dimethylaminoethylthio)-2-thienyl)methylene-6-(3,4-methylenedioxybenzylidene)-2,5-piperazinedione]
– | 82% | 99% | 20 µM | – | CN(C)CCSc1ccc(/C=c2\[nH]c(=O)/c(=C/c3ccc(N(C)C)cc3)[nH]c2=O)s1 [Compound 5280, (3Z,6Z)-6-(4-Dimethylaminobenzylidene)-3-(5-(2-dimethylaminoethylthio)-2-thienyl)methylene-2,5-piperazinedione]
– | – | – | 3 µM | – | CN(C)CCSc1ccc(/C=c2\[nH]c(=O)/c(=C/c3ccc4ccccc4c3)[nH]c2=O)cc1 [Compound 5284, (3Z,6Z)-6-(4-(2-Dimethylaminoethylthio)benzylidene)-3-(2-naphthylmethylene)-2,5-piperazinedione]
– | 87% | 98% | 8 µM | – | CN(C)CCSc1ccc(/C=c2\[nH]c(=O)/c(=C/c3ccc4ccccc4c3)[nH]c2=O)s1 [Compound 5286, (3Z,6Z)-3-(5-(2-Dimethylaminoethylthio)-2-thienyl)methylene-6-(2-naphthyl)methylene-2,5-piperazinedione]
– | 77% | 98% | 14 µM | – | CN(C)CCSc1ccc(/C=c2\[nH]c(=O)/c(=C/c3ccc4ccccc4c3)[nH]c2=O)s1 [Compound 5286.HCl, (3Z,6Z)-3-(5-(2-Dimethylaminoethylthio)-2-thienyl)methylene-6-(2-naphthyl)methylene-2,5-piperazinedione]
– | – | – | 20 µM | – | CN(C)CCSc1ccc(/C=c2\[nH]c(=O)/c(=C/c3cccc(Cl)c3)[nH]c2=O)s1 [Compound 5291, (3Z,6Z)-6-(3-Chlorobenzylidene)-3-(5-(2-dimethylaminoethylthio)-2-thienyl)methylene-2,5-piperazinedione]
– | – | – | 3 µM | – | CN(C)CCSc1ccc(/C=c2\[nH]c(=O)/c(=C/c3cccc(Cl)c3)[nH]c2=O)cc1 [Compound 5292, (3Z,6Z)-3-(3-Chlorobenzylidene)-6-(4-(2-dimethylaminoethylthio)benzylidene)-2,5-piperazinedione]
– | – | – | 2 µM | – | CN(C)CCSc1ccc(/C=c2\[nH]c(=O)/c(=C/c3cccc(Cl)c3)[nH]c2=O)cc1 [Compound 5292.HCl, (3Z,6Z)-3-(3-Chlorobenzylidene)-6-(4-(2-dimethylaminoethylthio)benzylidene)-2,5-piperazinedione]
– | – | – | 20 µM | – | CN(C)CCSc1ccc(/C=c2\[nH]c(=O)/c(=C/c3ccc(C(F)(F)F)cc3)[nH]c2=O)s1 [Compound 5293, (3Z,6Z)-3-(5-(2-Dimethylaminoethylthio)-2-thienyl)methylene-6-(4-trifluoromethylbenzylidene)-2,5-piperazinedione]
– | – | – | 2.5 µM | – | CN(C)CCSc1ccc(/C=c2\[nH]c(=O)/c(=C/c3ccc(C(F)(F)F)cc3)[nH]c2=O)cc1 [Compound 5294, (3Z,6Z)-3-(4-(2-Dimethylaminoethylthio)benzylidene)-6-(4-trifluoromethylbenzylidene)-2,5-piperazinedione]
– | – | – | 10 µM | – | CN(C)CCSc1ccc(/C=c2\[nH]c(=O)/c(=C/c3ccc(C(F)(F)F)cc3)[nH]c2=O)cc1 [Compound 5294.HCl, (3Z,6Z)-3-(4-(2-Dimethylaminoethylthio)benzylidene)-6-(4-trifluoromethylbenzylidene)-2,5-piperazinedione]
– | 64% | 70% | 25 µM | – | CC(=O)Nc1ccc(/C=c2\[nH]c(=O)/c(=C/c3ccc(SCCN(C)C)s3)[nH]c2=O)cc1 [Compound 5300, (3Z,6Z)-6-(4-Acetamidobenzylidene)-3-(5-(2-dimethylaminoethylthio)-2-thienyl)methylene-2,5-piperazinedione]
10% | 41% | 26% | – | – | CC(=O)Nc1ccc(/C=c2\[nH]c(=O)/c(=C/c3ccc(SCCN(C)C)s3)[nH]c2=O)cc1 [Compound 5300.HCl, (3Z,6Z)-6-(4-Acetamidobenzylidene)-3-(5-(2-dimethylaminoethylthio)-2-thienyl)methylene-2,5-piperazinedione]
– | 65% | 107% | 20 µM | – | CN(C)CCSc1ccc(/C=c2\[nH]c(=O)/c(=C/c3ccc4c(c3)Cc3ccccc3-4)[nH]c2=O)s1 [Compound 5301, (3Z,6Z)-3-(5-(2-Dimethylaminoethylthio)-2-thienyl)methylene-6-(2-fluorenylmethylene)-2,5-piperazinedione]
– | 83% | 88% | 8.5 µM | – | CN(C)CCSc1ccc(/C=c2\[nH]c(=O)/c(=C/c3ccnc4ccccc34)[nH]c2=O)s1 [Compound 5307, (3Z,6Z)-6-(5-(2-Dimethylaminoethylthio)-2-thienyl)methylene-3-(4-quinolylmethylene)-2,5-piperazinedione]
– | – | – | 18 µM | – | CN(C)CCSc1ccc(/C=c2\[nH]c(=O)/c(=C/c3ccnc4ccccc34)[nH]c2=O)s1 [Compound 5307.HCl, (3Z,6Z)-6-(5-(2-Dimethylaminoethylthio)-2-thienyl)methylene-3-(4-quinolylmethylene)-2,5-piperazinedione]
– | 81% | 80% | 4.7 µM | – | CN(C)CCSc1ccc(/C=c2\[nH]c(=O)/c(=C/c3ccc4ccccc4n3)[nH]c2=O)s1 [Compound 5308, (3Z,6Z)-6-(5-(2-Dimethylaminoethylthio)-2-thienyl)methylene-3-(2-quinolylmethylene)-2,5-piperazinedione]
– | 93% | 93% | 4.5 µM | – | CN(C)CCSc1ccc(/C=c2\[nH]c(=O)/c(=C/c3ccc4ccccc4n3)[nH]c2=O)s1 [Compound 5308.HCl, (3Z,6Z)-6-(5-(2-Dimethylaminoethylthio)-2-thienyl)methylene-3-(2-quinolylmethylene)-2,5-piperazinedione]
– | – | – | – | 15 µM | CN(C)CCSc1ccc(/C=c2\[nH]c(=O)/c(=C/c3ccc4c(c3)CCO4)[nH]c2=O)s1 [Compound 5311, (3Z,6Z)-3-(2,3-dihydro-5-benzofuranyl)methylene-6-(5-(2-dimethylaminoethylthio)-2-thienyl)methylene-2,5-piperazinedione]
– | – | – | 20 µM | – | CN(C)CCSc1ccc(/C=c2\[nH]c(=O)/c(=C/c3ccc4c(c3)CCO4)[nH]c2=O)s1 [Compound 5311.HCl, (3Z,6Z)-3-(2,3-dihydro-5-benzofuranyl)methylene-6-(5-(2-dimethylaminoethylthio)-2-thienyl)methylene-2,5-piperazinedione]
– | 10% | – | – | – | CN(C)CCSc1ccc(/C=c2\[nH]c(=O)/c(=C/c3ccccc3Br)[nH]c2=O)s1 [Compound 5313, (3Z,6Z)-6-(2-Bromobenzylidene)-3-(5-(2-dimethylaminoethylthio)-2-thienyl)methylene-2,5-piperazinedione]
